Assays:
[1] = Toxicity in mouse; format: organism-based; conditions: in vivo
BT-549 = experiment: Cytotoxicity against human BT549 cells after 48 hrs by SRB assay; format: functional; conditions: BT-549, 48 h
MCF7 = experiment: Cytotoxicity against human MCF7 cells after 48 hrs by SRB assay; format: functional; conditions: MCF7, 48 h
PC-3 = experiment: Cytotoxicity against human PC3 cells after 48 hrs by SRB assay; format: functional; conditions: PC-3, 48 h
TK-10 = experiment: Cytotoxicity against human TK10 cells after 48 hrs by SRB assay; format: functional; conditions: TK-10, 48 h
SN12C = experiment: Cytotoxicity against human SN12C cells after 48 hrs by SRB assay; format: functional
RXF 393 = experiment: Cytotoxicity against human RXF393 cells after 48 hrs by SRB assay; format: functional; conditions: RXF 393, 48 h
CAKI-1 = experiment: Cytotoxicity against human CAKI-1 cells after 48 hrs by SRB assay; format: functional; conditions: CAKI-1, 48 h
ACHN = experiment: Cytotoxicity against human ACHN cells after 48 hrs by SRB assay; format: functional
A498 = experiment: Cytotoxicity against human A498 cells after 48 hrs by SRB assay; format: functional; conditions: A498, 48 h
OVCAR-3 = experiment: Cytotoxicity against human OVCAR3 cells after 48 hrs by SRB assay; format: functional; conditions: OVCAR-3, 48 h
UACC-257 = experiment: Cytotoxicity against human UACC257 cells after 48 hrs by SRB assay; format: functional; conditions: UACC-257, 48 h
SK-MEL-28 = experiment: Cytotoxicity against human SK-MEL-28 cells after 48 hrs by SRB assay; format: functional; conditions: SK-MEL-28, 48 h
MDA-MB-435 = experiment: Cytotoxicity against human MDA-MB-435 cells after 48 hrs by SRB assay; format: functional; conditions: MDA-MB-435, 48 h
M14 = experiment: Cytotoxicity against human M14 cells after 48 hrs by SRB assay; format: functional; conditions: M14, 48 h
U-251 = experiment: Cytotoxicity against human U251 cells after 48 hrs by SRB assay; format: functional; conditions: U-251, 48 h
SF-295 = experiment: Cytotoxicity against human SF295 cells after 48 hrs by SRB assay; format: functional; conditions: SF-295, 48 h
SF-268 = experiment: Cytotoxicity against human SF268 cells after 48 hrs by SRB assay; format: functional; conditions: SF-268, 48 h
SW-620 = experiment: Cytotoxicity against human SW620 cells after 48 hrs by SRB assay; format: functional; conditions: SW-620, 48 h
HT-29 = experiment: Cytotoxicity against human HT-29 cells after 48 hrs by SRB assay; format: functional; conditions: HT-29, 48 h
HCT-15 = experiment: Cytotoxicity against human HCT15 cells after 48 hrs by SRB assay; format: functional; conditions: HCT-15, 48 h
COLO 205 = experiment: Cytotoxicity against human COLO205 cells after 48 hrs by SRB assay; format: functional; conditions: COLO 205, 48 h
NCI-H522 = experiment: Cytotoxicity against human NCI-H522 cells after 48 hrs by SRB assay; format: functional; conditions: NCI-H522, 48 h
HOP-92 = experiment: Cytotoxicity against human HOP92 cells after 48 hrs by SRB assay; format: functional; conditions: HOP-92, 48 h
HOP-62 = experiment: Cytotoxicity against human HOP62 cells after 48 hrs by SRB assay; format: functional; conditions: HOP-62, 48 h
EKVX = experiment: Cytotoxicity against human EKVX cells after 48 hrs by SRB assay; format: functional
A549 = experiment: Cytotoxicity against human A549 cells after 48 hrs by SRB assay; format: functional; conditions: A549, 48 h
RPMI-8226 = experiment: Cytotoxicity against human RPMI8226 cells after 48 hrs by SRB assay; format: functional; conditions: RPMI-8226, 48 h
MOLT-4 = experiment: Cytotoxicity against human MOLT4 cells after 48 hrs by SRB assay; format: functional; conditions: MOLT-4, 48 h
K562 = experiment: Cytotoxicity against human K562 cells after 48 hrs by SRB assay; format: functional; conditions: K562, 48 h
CCRF-CEM = experiment: Cytotoxicity against human CCRF-CEM cells after 48 hrs by SRB assay; format: functional
HL-60(TB) = experiment: Cytotoxicity against human HL-60(TB) cells after 48 hrs by SRB assay; format: functional; conditions: HL-60, 48 h
[2] = Cytotoxicity against human renal cancer cells after 48 hrs by SRB assay; format: functional; conditions: Cancer cell lines
[3] = Cytotoxicity against human ovarian cancer cells after 48 hrs by SRB assay; format: functional; conditions: Cancer cell lines
[4] = Cytotoxicity against human colon cancer cells after 48 hrs by SRB assay; format: functional; conditions: Cancer cell lines
[5] = Cytotoxicity against human leukemia cells after 48 hrs by SRB assay; format: functional; conditions: Leukemia cell
[6] = read-out: LC50 (the source's name)

Structure (SMILES): COc1ccc(C2CC(c3ccc4ccccc4c3)=NN2C2=NC(=O)/C(=C3\C(=O)Nc4ccc(Br)cc43)S2)cc1 (centres undefined)
- MTD [1]: > 400 mg/kg
- GI50 (BT-549): 553 nM
- TGI (BT-549): 7740 nM
- CC50 (BT-549; [6]): 35100 nM
- GI50 (MCF7): 26.4 nM
- TGI (MCF7): > 74.7 nM
- CC50 (MCF7; [6]): > 586 nM
- GI50 (PC-3): 26 nM
- TGI (PC-3): 82.7 nM
- CC50 (PC-3; [6]): 5460 nM
- GI50 (TK-10): 170 nM
- TGI (TK-10): 522 nM
- CC50 (TK-10; [6]): > 100000 nM
- GI50 (SN12C): 43.4 nM
- TGI (SN12C): 223 nM
- CC50 (SN12C; [6]): 1700 nM
- GI50 (RXF 393): 19.7 nM
- TGI (RXF 393): 40.3 nM
- CC50 (RXF 393; [6]): 82.2 nM
- GI50 (CAKI-1): 96.5 nM
- TGI (CAKI-1): 608 nM
- CC50 (CAKI-1; [6]): > 100000 nM
- GI50 (ACHN): 26.7 nM
- TGI (ACHN): 64.6 nM
- CC50 (ACHN; [6]): > 32300 nM
- GI50 (A498): 25.1 nM
- TGI (A498): 78.6 nM
- CC50 (A498; [6]): 316 nM
- GI50 (OVCAR-3): 21.6 nM
- TGI (OVCAR-3): 45 nM
- CC50 (OVCAR-3; [6]): 93.7 nM
- GI50 (UACC-257): 51.1 nM
- TGI (UACC-257): 318 nM
- CC50 (UACC-257; [6]): > 100000 nM
- GI50 (SK-MEL-28): 21.8 nM
- TGI (SK-MEL-28): 51.5 nM
- CC50 (SK-MEL-28; [6]): > 205 nM
- GI50 (MDA-MB-435): 31.8 nM
- TGI (MDA-MB-435): 106 nM
- CC50 (MDA-MB-435; [6]): 2440 nM
- GI50 (M14): 24.5 nM
- TGI (M14): 59.3 nM
- CC50 (M14; [6]): > 210 nM
- GI50 (U-251): 24.6 nM
- TGI (U-251): 57.8 nM
- CC50 (U-251; [6]): 289 nM
- GI50 (SF-295): 26.5 nM
- TGI (SF-295): 78.6 nM
- CC50 (SF-295; [6]): 1170 nM
- GI50 (SF-268): 36.5 nM
- TGI (SF-268): 222 nM
- CC50 (SF-268; [6]): 9630 nM
- GI50 (SW-620): 22 nM
- TGI (SW-620): 47.7 nM
- CC50 (SW-620; [6]): 127 nM
- GI50 (HT-29): 199 nM
- TGI (HT-29): 537 nM
- GI50 (HCT-15): 62.9 nM
- TGI (HCT-15): 325 nM
- CC50 (HCT-15; [6]): > 2450 nM
- GI50 (COLO 205): 21 nM
- TGI (COLO 205): 42 nM
- CC50 (COLO 205; [6]): > 84.1 nM
- GI50 (NCI-H522): 124 nM
- TGI (NCI-H522): 288 nM
- GI50 (HOP-92): < 10 nM
- TGI (HOP-92): 24.2 nM
- CC50 (HOP-92; [6]): 1470 nM
- GI50 (HOP-62): 22 nM
- TGI (HOP-62): 49.8 nM
- CC50 (HOP-62; [6]): > 157 nM
- GI50 (EKVX): 47.6 nM
- TGI (EKVX): 426 nM
- CC50 (EKVX; [6]): > 100000 nM
- GI50 (A549): 24.7 nM
- TGI (A549): 69.5 nM
- CC50 (A549; [6]): 25700 nM
- GI50 (RPMI-8226): 214 nM
- TGI (RPMI-8226): 1400 nM
- CC50 (RPMI-8226; [6]): > 42200 nM
- GI50 (MOLT-4): 30.7 nM
- TGI (MOLT-4): 521 nM
- CC50 (MOLT-4; [6]): > 100000 nM
- GI50 (K562): 37 nM
- TGI (K562): > 12400 nM
- CC50 (K562; [6]): > 100000 nM
- GI50 (CCRF-CEM): 32.9 nM
- TGI (CCRF-CEM): 483 nM
- CC50 (CCRF-CEM; [6]): > 100000 nM
- GI50 (HL-60(TB)): 257 nM
- TGI (HL-60(TB)): 3200 nM
- CC50 (HL-60(TB); [6]): > 49300 nM
- GI50 [2]: 64 nM
- LC50 [2]: 5190 nM
- TGI [2]: 330 nM
- GI50 [3]: 110 nM
- LC50 (concentration causing 50% net cell kill) [3]: 18800 nM
- TGI [3]: 850 nM
- GI50 [4]: 50 nM
- LC50 (concentration lethal to 50% of cells) [4]: 1150 nM
- TGI [4]: 140 nM
- GI50 [5]: 130 nM
- TGI [5]: 3370 nM
- CC50 [5, 6]: 87800 nM
